Structures can show the parent of a compound that is named as a salt.
target: T1, human HSL (Homo sapiens, UniProt Q05469); assay: Human Hormone-Sensitive Lipase (HSL) enzyme inhibition assay (colorimetric, DMPT substrate); assay type: biochemical; conditions: read-out: HSL hum IC50
T1 construct: generate a full length human HSL ORF with a 3′-His6 tag; His6 (C); made in house; host or cells: High 5 insect cells (baculovirus, pFast-BAC)
T1 sequence (Q05469 1-1076): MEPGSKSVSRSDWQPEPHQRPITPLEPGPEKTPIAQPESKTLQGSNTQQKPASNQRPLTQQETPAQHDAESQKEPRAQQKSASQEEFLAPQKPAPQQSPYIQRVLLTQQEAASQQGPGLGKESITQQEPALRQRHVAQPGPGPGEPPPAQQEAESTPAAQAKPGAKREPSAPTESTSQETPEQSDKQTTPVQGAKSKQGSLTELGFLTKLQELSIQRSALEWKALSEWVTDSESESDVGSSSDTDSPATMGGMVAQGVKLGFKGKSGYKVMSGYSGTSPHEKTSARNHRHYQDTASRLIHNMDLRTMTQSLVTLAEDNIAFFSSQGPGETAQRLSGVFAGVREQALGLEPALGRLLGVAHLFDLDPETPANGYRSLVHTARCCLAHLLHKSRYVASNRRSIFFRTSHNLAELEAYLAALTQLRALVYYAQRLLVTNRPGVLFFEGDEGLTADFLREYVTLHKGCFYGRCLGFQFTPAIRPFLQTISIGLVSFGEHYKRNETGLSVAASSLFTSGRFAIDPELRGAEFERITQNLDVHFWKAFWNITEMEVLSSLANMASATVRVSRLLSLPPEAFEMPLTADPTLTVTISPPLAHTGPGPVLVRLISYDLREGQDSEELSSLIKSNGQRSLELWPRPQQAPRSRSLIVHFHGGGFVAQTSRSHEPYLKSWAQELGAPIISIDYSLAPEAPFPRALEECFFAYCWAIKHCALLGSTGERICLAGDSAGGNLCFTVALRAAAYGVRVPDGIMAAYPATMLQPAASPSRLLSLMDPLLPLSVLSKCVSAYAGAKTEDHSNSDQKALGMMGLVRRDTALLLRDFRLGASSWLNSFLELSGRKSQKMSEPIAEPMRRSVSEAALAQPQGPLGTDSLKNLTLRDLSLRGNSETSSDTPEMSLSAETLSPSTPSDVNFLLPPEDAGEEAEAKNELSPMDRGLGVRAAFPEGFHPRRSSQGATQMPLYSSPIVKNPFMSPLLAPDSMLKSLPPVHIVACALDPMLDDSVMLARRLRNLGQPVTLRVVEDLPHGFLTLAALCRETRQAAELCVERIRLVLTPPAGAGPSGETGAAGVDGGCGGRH
Protocol: Production of Human Full Length Hormone Sensitive Lipase-His^6
1) Cloning: cDNA was prepared from commercial human brain polyA+ RNA and used as a template in overlapping PCR to generate a full length human HSL ORF with a 3′-His6 tag. This full length insert was cloned into the pFast-BAC vector and the DNA-sequence of several single clones was verified. DNA from a correct full length clone with the 3′His6 tag was used to transform the E. coli strain DH10BAC. Resulting bacmid DNA was used to generate a titered baculovirus stock for protein generation. The sequence of the encoded HSL conforms to Swissprot entry Q05469, with the additional C-terminal His6-tag.
2) Protein purification: Culture: 5.5 L, High 5 cells expressing human full length HSL-His^6, 48 hr., containing 25 μM E-64. Cell count: […], 90% viable.
Cells were thawed. On ice, cells were suspended in Base Buffer containing 10% glycerol, 25 mM Tris-Cl, 300 mM NaCl, 10 mM imidazole, 10 mM 2-mercaptoethanol, 2 μg pepstatin/ml, 2 μg leupeptin/ml, 2 μg antipain/ml, pH 8.0 at 4° C. in a final volume of 475 ml with 3.75×10^7 cells/ml. […] was done at 3×30 sec., Lubrol PX was added to 0.2% final concentration followed by stirring for 15 min. at 4° C. and centrifugation at 25 k×g, 60 min., 4° C. Soluble proteins were mixed with 60 ml of pre-washed and equilibrated Ni-NTA Agarose (Qiagen 30210) followed by tumbling end-over-end, 45 min., 4° C., centrifugation 1000 rpm 5 min and letting resin settle 5 min. Supernatant was removed, the resin washed in the centrifuge vessel using 5 volumes of Base Buffer containing 0.2% Lubrol PX. Centrifugation was done again, then the supernatant discarded. The resin was poured onto a 0.8 μm membrane in a disposable filter unit (Nalge 450-0080), and washed with 5 volumes of Base Buffer containing 0.2% Lubrol PX. It was then washed with 30 volumes of Base Buffer containing 60 mM imidazole pH 7.5 at 4° C. The protein was eluted with 5 volumes of 25 mM Tris-Cl, 300 mM NaCl, 200 mM imidazole, 10 mM 2-mercaptoethanol, pH 7.5 at 4° C. by tumbling resin with buffer end-over-end, 30 min., 4° C. The resin was captured on a 0.2 μm membrane disposable filter unit (Millipore SCGP U02 RE) and the elute collected in the reservoir. The elute was concentrated using a 30 k MWCO centrifugal filter device (Sartorius Vivascience Vivacell 100, VC1022), to 20 ml. It was then dialyzed overnight at 4° C., two times against 2 L of 10% glycerol, 25 mM Tris-Cl, 300 mM NaCl, 0.2 mM EDTA, 0.2 mM DTT, pH 7.5 at 4° C. The protein was filtered using a 0.22 μm disposable filter unit (Millipore SCGP00525). The protein concentration was calculated from absorbance at 280 nm, using 280=0.67 cm-1 mg-1. Yield was 235 mg, total. The protein was stored at −80° C. Human Hormone-Sensitive Lipase (HSL) enzyme inhibition assay:
HSL enzyme activity was measured by a colorimetric assay using 2,3-dimercapto-1-propanol tributyrate (Aldrich, St. Louis, Mo.) as a substrate. Typically, 1.5 mM 2,3-dimercapto-1-propanol tributyrate (DMPT) in 100 mM MOPS, pH 7.2, 0.2 mg/ml fatty acid-free BSA was prepared by sonication at 4° C. to homogenous suspension. Test compounds (2 mM stock in DMSO) were diluted 3 fold in series in DMSO. Compound solutions were diluted 24 fold in 1.5 mM DMPT containing solution and 18 ul per well was added to 384-well microplates (Corning Costar). Twelve microliters per well of human HSL (15 ug/ml) was added and the reaction mixture was incubated at 37° C. for 20 minutes. Six microliters of 12 mM dithio-bis-(2-nitrobenzoic acid) (DTNB) in DMSO plus 1.2% SDS and 0.6% Triton X-100 were added and the mixture was incubated at room temperature for 15 minutes. Product production was monitored by reading absorbance at 405 nm on an Envision Reader (PerkinElmer Life and Analytical Sciences, Shelton, Conn.).

| IC50 | Compound |
| --- | --- |
| 490 nM | CC(C)(C)c1ccc(NC(=O)C2(O)CCN(C(=O)c3ccc(F)cc3F)CC2)cc1 [Example 41, 1-(2,4-Difluoro-benzoyl)-4-hydroxy-piperidine-4-carboxylic acid (4-tert-butyl-phenyl)-amide] |
| 60 nM | CCc1ccc(NC(=O)C2(N)CCN(S(=O)(=O)c3ccccc3F)CC2)cc1 [Example 134, 4-Amino-1-(2-fluoro-benzenesulfonyl)-piperidine-4-carboxylic acid (4-ethyl-phenyl)-amide] |
| 450 nM | CC(C)c1ccc(NC(=O)C2(O)CCN(Cc3ccc(C(F)(F)F)cc3)CC2)cc1 [Example 9, 4-Hydroxy-1-(4-trifluoromethyl-benzyl)-piperidine-4-carboxylic acid (4-isopropyl-phenyl)-amide] |
| 950 nM | O=C(Nc1ccc(F)cc1)N1CCC(O)(C(=O)Nc2ccc(OC(F)(F)F)cc2)CC1 [Example 52, 4-Hydroxy-piperidine-1,4-dicarboxylic acid 1-[(4-fluoro-phenyl)-amide] 4-[(4-trifluoromethoxy-phenyl)-amide]] |
| 240 nM | CCc1ccc(NC(=O)C2(N)CCN(S(=O)(=O)c3c(Cl)cccc3Cl)CC2)cc1 [Example 150, 4-Amino-1-(2,6-dichloro-benzenesulfonyl)-piperidine-4-carboxylic acid (4-ethyl-phenyl)-amide] |
| 110 nM | CCc1ccc(NC(=O)C2(N)CCN(S(=O)(=O)c3ccc(CC)cc3)CC2)cc1 [Example 140, 4-Amino-1-(4-ethyl-benzenesulfonyl)-piperidine-4-carboxylic acid (4-ethyl-phenyl)-amide] |
| 130 nM | CC(C)c1ccc(NC(=O)C2(N)CCN(Cc3ccccc3)CC2)cc1 [Example 122, 4-Amino-1-benzyl-piperidine-4-carboxylic acid (4-isopropyl-phenyl)-amide] |
| 100 nM | CNC1(C(=O)Nc2ccc(OC(F)(F)F)cc2)CCN(S(=O)(=O)c2ccc(C)cc2)CC1 [Example 160, 4-Methylamino-1-(toluene-4-sulfonyl)-piperidine-4-carboxylic acid (4-trifluoromethoxy-phenyl)-amide] |
| 370 nM | Cc1ccc(NC(=O)C2(N)CCN(C(=O)Nc3ccc(C(C)(C)C)cc3)CC2)cc1 [Example 88, 4-Amino-piperidine-1,4-dicarboxylic acid 1-[(4-tert-butyl-phenyl)-amide]-4-p-tolylamide; hydrochloride] |
| 490 nM | CC(C)c1ccc(NC(=O)C2(N)CCN(C(=O)c3ccc(F)cc3)CC2)cc1 [Example 127, 4-Amino-1-(4-fluoro-benzoyl)-piperidine-4-carboxylic acid (4-isopropyl-phenyl)-amide] |
| 30 nM | NC1(C(=O)Nc2ccc(OC(F)(F)F)cc2)CCN(S(=O)(=O)c2ccccc2Cl)CC1 [Example 103, 4-Amino-1-(2-chloro-benzenesulfonyl)-piperidine-4-carboxylic acid (4-trifluoromethoxy-phenyl)-amide] |
| 80 nM | CC(C)(C)c1ccc(NC(=O)C2(O)CCN(Cc3ccccc3F)CC2)cc1 [Example 45, 1-(2-Fluoro-benzyl)-4-hydroxy-piperidine-4-carboxylic acid (4-tert-butyl-phenyl)-amide] |
| 90 nM | NC1(C(=O)Nc2ccc(OC(F)F)cc2)CCN(S(=O)(=O)c2ccccc2Cl)CC1 [Example 97, 4-Amino-1-(2-chloro-benzenesulfonyl)-piperidine-4-carboxylic acid (4-difluoromethoxy-phenyl)-amide] |
| 460 nM | CCc1ccc(NC(=O)C2(N)CCN(Cc3ccc(C(C)C)cc3)CC2)cc1 [Example 158, 4-Amino-1-(4-isopropyl-benzyl)-piperidine-4-carboxylic acid (4-ethyl-phenyl)-amide] |
| 540 nM | CCc1ccc(NC(=O)C2(N)CCN(Cc3ccccc3)CC2)cc1 [Example 151, 4-Amino-1-benzyl-piperidine-4-carboxylic acid (4-ethyl-phenyl)-amide] |
| 360 nM | CC(C)c1ccc(NC(=O)C2(N)CCN(C(=O)c3ccc(Cl)cc3)CC2)cc1 [Example 125, 4-Amino-1-(4-chloro-benzoyl)-piperidine-4-carboxylic acid (4-isopropyl-phenyl)-amide] |
| 180 nM | CCc1ccc(NC(=O)C2(N)CCN(Cc3ccccc3C(F)(F)F)CC2)cc1 [Example 157, 4-Amino-1-(2-trifluoromethyl-benzyl)-piperidine-4-carboxylic acid (4-ethyl-phenyl)-amide] |
| 550 nM | O=C(c1ccc(F)cc1)N1CCC(O)(C(=O)Nc2ccc(OC(F)(F)F)cc2)CC1 [Example 11, 1-(4-Fluoro-benzoyl)-4-hydroxy-piperidine-4-carboxylic acid (4-trifluoromethoxy-phenyl)-amide] |
| 40 nM | CC(C)c1ccc(NC(=O)C2(N)CCN(S(=O)(=O)c3ccccc3Cl)CC2)cc1 [Example 116, 4-Amino-1-(2-chloro-benzenesulfonyl)-piperidine-4-carboxylic acid (4-isopropyl-phenyl)-amide; hydrochloride] |
| 180 nM | CC(C)(Oc1ccc(NC(=O)C2(N)CCN(S(=O)(=O)c3ccccc3Cl)CC2)cc1)C(F)(F)F [Example 102, 4-Amino-1-(2-chloro-benzenesulfonyl)-piperidine-4-carboxylic acid [4-(2,2,2-trifluoro-1,1-dimethyl-ethoxy)-phenyl]-amide] |
| 140 nM | CCc1ccc(NC(=O)C2(N)CCN(S(=O)(=O)c3ccccc3OC)CC2)cc1 [Example 137, 4-Amino-1-(2-methoxy-benzenesulfonyl)-piperidine-4-carboxylic acid (4-ethyl-phenyl)-amide] |

Source: patent US8399676B2, “Piperidine derivatives” (Hoffman-La Roche Inc., priority 2009, dated 2013)
